The record followed here is US20120263780A1, “Carbohydrate Entrapped Active Agent Delivery Composition and Articles Using the Same” (priority 2009, published 2012).

In assay [1] the test system is Staphylococcus aureus (ATCC #6538). As to the kind of experiment: Zone of inhibition testing on agar plates. Format: cell-based. To be noted: for Observed Zone of Inhibition (mm): 7 day old sample; for Zone (mm): thymol powder in well. Here is the method:
The samples prepared above were cut into 10 mm-diameter circular sections of thymol-treated and untreated material. These samples were placed on a freshly streaked sample of staphylococcus aureus on trypticase soy agar. After 24 hours incubation at 37° C., plates were measured for zones of inhibitions surrounding the samples. To calculate the zone of inhibition, the test material was brought into contact with a known population of test microorganisms on an agar plate for a specified period of time. At the end of the contact time the area of inhibited colony formation around the test material was measured. The size of this area of no growth was a measure of leaching of the antimicrobial agent from the test material. In this procedure, the test material was cut into small discs and placed on an agar plate evenly spread with a test microorganism. The plates were incubated for 24 hours at ideal growth conditions. Following incubation, the diameter of the circle of no growth around the disc was measured. The zone of inhibition was reported as the difference between the sample disc diameter and the average of the measured no growth zone diameters. Materials and Reagents • Microorganisms: frozen stock of Staphylococcus aureus (ATCC 6538). • Mueller-Hinton agar (MHA) plates or equivalent plated media. Prepare following manufacturer's directions. Store at 4±2° C. Alternatively pre-made plates can be utilized. • Mueller-Hinton broth (MHB) or equivalent liquid media. Prepare following manufacturers directions. Store at 4±2° C. Alternately pre-made media can be utilized. • Sterile cotton swabs or equivalent. • Sterile forceps. • Positive control disc: Vanocymicin susceptibility discs (6 mm), 30 μg/disc (BD and Company; Sparks, Md.). • Test material, cut into 8 mm discs. • Calipers or other measuring device. • Other ancillary lab supplies. 2. Staphylococcus aureus (ATCC 6538) is inoculated from an overnight plate or MHB into 5 ml of sterile MHB in a 35° C. incubator for 18-24 hrs. 3. The overnight culture is then adjusted using MHB to the 0.5 McFarland barium sulphate standards (1×10^8 CFU/ml) or approximately 0.15 OD with a 0.2 cm light path at 660 nanometer. 1. Pre-warm, to room temperature, MHA plates. […] 3. Moisten a sterile applicator swab in the standardized cell suspension and express any excess moisture by rotating the swab against the glass above the liquid in the tube. Inoculate the entire surface of each plate, inoculating the surface completely in three different directions to ensure uniform growth. 5. Store the inoculated plates at room temperature for 10-15 minutes to allow the medium to absorb the moisture from the inoculum. 6. Apply discs of test material to the surface of the inoculated medium with a sterile forceps and tap them to ensure that they are in complete contact with the agar surface. A positive control (vancomycin disc) and negative control (uncoated disc) should be used on each plate. 7. Invert the inoculated plates and incubate them at 35° C. for 18-24 hours. 8. Examine the plates from the back, viewed against a black background and illuminated with reflected light. With calipers, measure the diameter of each zone of inhibition to the nearest whole millimeter. Zone of Inhibition=diameter of no growth area−diameter of disc First, exemplary Delivery Compositions 1 and 2 were created. A sucrose blend was melted on a stove top to prepare a carbohydrate matrix. An active agent was added to the molten sucrose to provide a 2% loading of thymol. After the mixture was melted, analysis was performed to determine the amount of thymol retained within the sucrose. Delivery Composition 1 contained approximately 0.72 wt. % thymol and Delivery Composition 2 contained approximately 0.74 wt. % thymol. Both Delivery Compositions 1 and 2 were placed in a well in a media with a plate inoculated with Staphylococcus aureus (ATCC #6538) and a zone of inhibition for each sample was measured as described above. […]

For assay [2] the test system is unchanged. As to the kind of experiment: Shake flask test ASTM E2149-01, anti-bacterial activity of thymol-treated coform substrates. The format is cell-based. To be noted: 7 day old sample, 1 hour exposure. Here is the method:
Five sections of coform material approximately 17 cm by 17 cm were prepared and weighed to determine the amount of thymol needed for loading of thymol at a weight percent of 0.3%, 0.6% and 1.0%. The determined quantity of thymol to provide thymol as a percentage was placed in an excess (39.0 grams) of ethanol to be dissolved. The coform substrates were placed into a plastic bag and the ethanol/thymol mixture was added. Using a cylindrical glass jar rolled on the outside of the sealed plastic bag, the sheets were rolled to evenly express the liquid throughout the coform squares. The coform was then removed from the bag and placed in a fume hood to allow the ethanol to evaporate off. The remaining dry sheets containing thymol were removed from the hood after one hour and placed in a dry plastic bag. Samples were aged 7 days and tested for anti-bacterial activity. To determine the anti-bacterial activity of the samples after 7 days, the shake flask test of ASTM […]-01 “Standard Test Method for Determining the Antimicrobial Activity of Immobilized Antimicrobial Agents Under Dynamic Contact Conditions” was used. Approximately 1 gram samples of thymol-treated and untreated coform substrates were placed in individual capped flasks containing approximately 10^5 CFU of a Staphylococcus aureus (ATCC #6538) in phosphate buffered saline. Flasks were shaken at maximum speed on a wrist-action shaker for 1 hour. […] The active agent thymol has volatilized off of the sample within the 7 day time period.

[3] abbreviates: 0.3% thymol add-on to coform substrate.
Where [4] appears, read: 0.6% thymol add-on to coform substrate.
The mark [5] stands for this setting: 1% thymol add-on to coform substrate.

Consider `Cc1ccc(C(C)C)c(O)c1` [Thymol, thymol], for which the “Observed Zone of Inhibition (mm)” value in assay [1] (setting [3]), in assay [1] (setting [4]) and in assay [1] (setting [5]) was 0 mm throughout. The zone of inhibition in assay [1] (neat powder, various amounts, after 1 day) is on record as 10-15 mm. The “Zone (mm)” value stood at 10 mm in assay [1] (weight 0.0018 grams); 12 mm in assay [1] (weight 0.0045 grams); 13 mm in assay [1] (weight 0.0353 grams); 12 mm in assay [1] (weight 0.0789 grams); 15 mm in assay [1] (weight 0.1609 grams). For the same compound, the “Log10 Reduction of Bacteria” value in assay [2] (setting [3]), in assay [2] (setting [4]) and in assay [2] (setting [5]) was “No Reduction” each time.
